According to paper PMC6631792, “In Vitro and In Vivo Anti-Breast Cancer Activities of Some Newly Synthesized 5-(thiophen-2-yl)thieno-[2,3-d]pyrimidin-4-one Candidates” (Molecules, 2019):

Key:
MCF-7 cells = test: MTT cytotoxic assay on MCF-7 cells; format: cell-based, Human; conditions: Homo sapiens, MCF7
Excerpt: “Human breast cancer cells (MCF-7) and normal non-tumorigenic MCF-10A cells were used throughout the work. Cells were obtained from ATCC, Gaithersburg, MD, USA. Standard MTT assay was used to explore the possible cytotoxic effects of the synthesized compounds [41, 42]. Medium composition, cultivation conditions and assay performance were exactly the same as our previous work. […] After MTT addition, the absorbance of the dissolved formazan crystals was read at 570 nm. The IC50 values were obtained with linear regression equations using Origin® 6.1 software (Origin Lab Corporation, Northampton, MA, USA)”.

[1] = Average animal weight in MCF-7 mouse xenograft model; format: in vivo; conditions: nude mice with MCF-7 xenograft, i.p.
Excerpt: “In this work, MCF-7 mouse xenograft model was used. The animal protocol was approved by the Institutional Animal Use Ethics and Care Committee of the University of Alabama at Birmingham (50-01-05-08B). Female athymic pathogen-free nude mice (nu/nu, 4–6 weeks) were purchased from Frederick Cancer Research and Development Center (Frederick, MD, USA). To establish MCF-7 human breast cancer xenografts, each of the female nude mice was first implanted with a 60-day (subcutaneously, s.c.) slow release estrogen pellet (SE-121, 1.7 mg […]/pellet; Innovative Research of America, Sarasota, FL, USA). After 24 h, grown cells were harvested, washed twice with serum-free medium, resuspended, and injected subcutaneously (5 million cells/0.2 mL) into the left inguinal area of the mice. During the experiment, animals were checked periodically and the percentages of tumor growth, as well as animal weights, were recorded. Every 48 h, the size of the tumor was recorded by measuring two perpendicular diameters of the tumor and tumor volume was calculated according to Wang et al. [46]”.
“Treated animals and control groups (7–10 mice/group) received different compounds and vehicles, respectively. The tested compounds were dissolved in PEG400:ethanol:saline (57.1:14.3:28.6, v/v/v), and injected intraperitoneal (i.p.) at doses of […], 3 d/wk for 3 weeks. The higher dose (10 µM/kg/d, 3 d/wk) inhibited MCF-7 xenograft tumor growth”.

In the case of O=C(Cn1cnc2scc(-c3cccs3)c2c1=O)NN1C(=O)CSC1c1ccc(Cl)cc1 (centres unmarked) [Compound 9, N-(2-(4-Chlorophenyl)-4-oxothiazolidin-3-yl)-2-(4-oxo-5-(thiophen-2-yl)thieno[2,3-d]-pyrimidin-3(4H)-yl)-acetamide], the IC50 (MCF-7 cells) is reported as 2370 ± 53 nM, the melting point is reported as 175 to 177 °C and the “Average Weight of Animals in Grams after Days 0” value ([1]; day 0) is reported as 24.1 Grams. The “Average Weight of Animals in Grams after Days 2” value ([1]; day 2) was 24.1 Grams, the “Average Weight of Animals in Grams after Days 4” value ([1]; day 4) was 24.0 Grams and the “Average Weight of Animals in Grams after Days 6” value ([1]; day 6) was 24.0 Grams. The “Average Weight of Animals in Grams after Days 8” value ([1]; day 8) was 24.0 Grams, the “Average Weight of Animals in Grams after Days 10” value ([1]; day 10) was 24.0 Grams and the “Average Weight of Animals in Grams after Days 12” value ([1]; day 12) was 23.7 Grams. The “Average Weight of Animals in Grams after Days 14” value ([1]; day 14) was 23.7 Grams, the “Average Weight of Animals in Grams after Days 16” value ([1]; day 16) was 23.6 Grams and the “Average Weight of Animals in Grams after Days 18” value ([1]; day 18) was 23.6 Grams. The “Average Weight of Animals in Grams after Days 20” value ([1]; day 20) was 23.6 Grams and the “Average Weight of Animals in Grams after Days 22” value ([1]; day 22) was 23.6 Grams.
